The target of one experiment is T1, PRKACA-DNAJB1 (Homo sapiens, UniProt P17612).
T1 construct: DNAJB1 (fusion partner, P25685); the other entry of the earlier key: DNAJB1 (P25685, DnaJ homolog subfamily B member 1)
The experiment is described as follows: PRKACA-DNAJB1 enzyme assay (EZ Reader 2 electrophoretic mobility shift). The class given is biochemical. The note with it: read-out: Enz PRKACA-DNAJB1 IC50. The procedure:
(§1) A Perkin Elmer electrophoretic mobility shift platform (the EZ Reader 2) was used to assess the activity of test compounds against a kinase of interest. Fluorescently labeled substrate peptide was incubated in the presence of kinase, ATP, and the test compound, so that a portion of the peptide was phosphorylated by the enzyme. At the end of the reaction, the mix of phosphorylated (product) and non-phosphorylated (substrate) peptide containing solutions was passed through the microfluidic system of the Perkin Elmer EZ Reader 2 under an applied potential difference. The presence of the phosphate group on the product peptide provided a difference in mass and charge between those of the substrate peptide, resulting in a separation of the substrate and product pools in the sample. As the stopped solutions passed under the instrument's LED light the phosphorylated and un-phosphorylated fluorophore bound peptides were detected and resolved as separate peaks. The ratio between these peaks therefore reflected the test compound's impact on the kinase at that concentration in that well under those conditions.
On the technique in general: In EMSA bound probe runs differently from free probe, usually more slowly.

The next experiment concerns the target T2, PRKACA (Homo sapiens, UniProt P17612).
T2 construct: purchased Millipore 539482
The experiment is described as follows: PRKACA assay at Km (EZ Reader 2 electrophoretic mobility shift). The class given is biochemical. The note with it: 5 μM ATP (Km), 1 μM Kemptide, 90 minutes at 25 C; read-out: Enz PRKACA IC50. How it is done: as §1
PRKACA assay at Km: In each well of a 384-well plate, 0.007 ng/ul (0.18 nM) of PRKACA enzyme (Millipore: 539482) was incubated in a total of 12.5 μl of buffer (100 mM HEPES pH 7.5, 0.015% Brij 35, 10 mM MgCl2, 1 mM DTT) with 1 μM Kemptide peptide substrate (5-FAM-LRRASLG) (Anaspec 29933) and 5 μM ATP at 25 C for 90 minutes in the presence or absence of a dosed concentration series of test compounds (1% DMSO final concentration). The reaction was stopped by the addition of 80 μl of Stop buffer (100 mM HEPES pH 7.5, 0.015% Brij 35, 35 mM EDTA and 0.2% of Coating Reagent 3 (Perkin Elmer)). The plate was then read on the EZ Reader 2 (protocol settings: −2.0 psi, upstream voltage −700, downstream voltage −2700, post sample sip 60 seconds). Data was normalized to 0% and 100% inhibition controls and the IC50 calculated using a 4-parameter fit using GraphPad Prism.

In experiment [1] the test system is PKA (phosphorylation of VASP on Serine 157). The experiment is described as follows: Cellular potency assay: P-VASP(157) HTRF in Forskolin-stimulated Huh7 cells. Format: cell-based. The note with it: Homo sapiens, Huh-7, 4 hours compound, 5 μM Forskolin 30 minutes, read-out: Phos VASP(S157) IC50. The text has this: PKA directly phosphorylate VASP on Serine 157. Phosphorylation of VASP on Serine 157. P-VASP(157) was therefore used as a readout of PKA cellular activity. P-VASP(157) was detected with a HTRF assay, which is based on a TR-FRET sandwich immunoassay-based format comprising two specific anti-VASP antibodies following the manufactors protocol (Cisbio, Catalog No. 63ADK066PEH). PKA was activated in the assay by the addition of Forskolin (Sigma-Aldrich, Catalog No. F3917).
Dose response in Forskolin-stimulated human Huh7 cells was measured as follows. Briefly, Huh7 cells were plated at a density of 2×10^4 cells per well in a 384-well opti-well cell culture plate in 15 μl of serum- and phenol-free Dulbecco's Modified Eagle Medium (DMEM, Gibco Catalog No. 21063-029), and incubated for over night at 37° C., 5% CO2. The next day, 3 μl of a dosed concentration series of test compound (0.24%) DMSO final concentration) was added to the wells, and the cells were incubated for an additional 4 hours at 37° C., 5% CO2. 2 μl of Forskolin was added at a final concentration of 5 μM and the plates were incubated for 30 minutes at 37° C., 5% CO2. 5 μl of lysis buffer containing 1% HALT protease cocktail inhibitors (ThermoFisher, Catalog No. 78430), was added to the cells and the mixture was incubated under gentle shaking for 30 min at room temperature. 10 μl of this lysate was transferred to a 384-well proxi plate and 2.5 μL of the premixed antibody solution was added. An antibody solution was prepared by combining phopho-VASP cryptate antibody and phospho-VASP d2 antibody, at twenty-fold dilution into a buffer solution following the manufactors' protocol. The lysate and antibody mixture was incubated for either 3 h at room temperature or overnight at 4° C. The fluorescence emission at two different wavelengths (665 nm and 620 nm) was read on an EnVision instrument.
In general terms: In TR-FRET formats the signal depends on donor and acceptor labels being close together.

The term IC50 denotes the point on the concentration scale where inhibition reaches its midpoint. Turning to `Cc1c[nH]c2nccc(-c3ccc(C(=O)N[C@@H]4c5ccccc5C[C@H]4O)cc3)c12` [Compound 107, N-[(1R,2R)-2-Hydroxy-2,3-dihydro-1H-inden-1-yl]-4-{3-methyl-1H-pyrrolo[2,3-b]pyridin-4-yl}benzamide], the 50% inhibitory concentration (IC50) is ≤ 1 nM on PRKACA-DNAJB1, ≤ 1 nM at PRKACA and < 50 nM in experiment [1].
As to `C[C@@H]1C[C@H](NC(=O)c2ccc(-c3ccnc4[nH]ccc34)cc2)c2ccccc2O1` [Compound 109], the values for the IC50 (at PRKACA-DNAJB1; on PRKACA; in experiment [1]) were ≤ 1 nM, ≤ 1 nM and < 50 nM, respectively.
As for `O=C(N[C@@H]1c2ccccc2OC[C@@H]1O)c1ccc(-c2ccnc3[nH]ccc23)cc1` [Compound 110, N-[(3R,4R)-3-Hydroxy-3,4-dihydro-2H-1-benzopyran-4-yl]-4-{1H-pyrrolo[2,3-b]pyridin-4-yl}benzamide], the IC50 is ≤ 1 nM on PRKACA-DNAJB1, ≤ 1 nM at PRKACA and < 50 nM in experiment [1].
On to `O=C(N[C@@H]1c2ccccc2C[C@H]1O)c1ccc(-c2ccnc3[nH]cc(F)c23)cc1` [Compound 111], for which the IC50 on PRKACA-DNAJB1 was ≤ 1 nM; on PRKACA it was ≤ 1 nM; in experiment [1], < 50 nM.
Turning to `O=C(N[C@@H]1c2ccccc2C[C@@H]1O)c1ccc(-c2ccnc3[nH]cc(F)c23)cc1` [Compound 112, 4-(3-Fluoro-1H-pyrrolo[2,3-b]pyridin-4-yl)-N-((1R,2S)-2-hydroxy-2,3-dihydro-1H-inden-1-yl)benzamide], the IC50 at PRKACA-DNAJB1 was ≤ 1 nM; on PRKACA, ≤ 1 nM; in experiment [1] it was 0.01 to 100 nM.
In the case of `O=C(N[C@H]1CCOc2cc(F)ccc21)c1ccc(-c2ccnc3[nH]ccc23)cc1` [Compound 113], the IC50 on PRKACA-DNAJB1 was 1.01 to 5 nM; at PRKACA it was ≤ 1 nM; in experiment [1] it was 0.01 to 100 nM.
With `O=C(N[C@H]1CCOc2ccc(F)cc21)c1ccc(-c2ccnc3[nH]ccc23)cc1` [Compound 114], the values for the IC50 (on PRKACA-DNAJB1; on PRKACA; in experiment [1]) were ≤ 1 nM, ≤ 1 nM and < 50 nM, respectively.
For `O=C(N[C@H]1CCOc2ccccc21)c1ccc(-c2ccnc3[nH]cc(F)c23)cc1` [Compound 115], the IC50 at PRKACA-DNAJB1 was ≤ 1 nM; at PRKACA, ≤ 1 nM; in experiment [1], < 50 nM.
Regarding `O=C(N[C@H]1CCOc2cccc(F)c21)c1ccc(-c2ccnc3[nH]ccc23)nc1` [Compound 117, (S)—N-(5-Fluorochroman-4-yl)-6-(1H-pyrrolo[2,3-b]pyridin-4-yl)nicotinamide], the values for the IC50 (at PRKACA-DNAJB1; at PRKACA; in experiment [1]) were ≤ 1 nM, ≤ 1 nM and < 50 nM, respectively.
With `CN(C)[C@@H]1Cc2ccccc2[C@H]1NC(=O)c1ccc(-c2ccnc3[nH]ccc23)cc1` [Compound 120, N-[(1R,2R)-2-(Dimethylamino)-2,3-dihydro-1H-inden-1-yl]-4-{1H-pyrrolo[2,3-b]pyridin-4-yl}benzamide], the 50% inhibitory concentration (IC50) at PRKACA-DNAJB1 was ≤ 1 nM; on PRKACA, ≤ 1 nM; in experiment [1], < 50 nM.
Turning to `Cc1c[nH]c2nccc(-c3ccc(C(=O)N[C@H]4CCOc5cccc(F)c54)cn3)c12` [Compound 121, (S)—N-(5-Fluorochroman-4-yl)-6-(3-methyl-1H-pyrrolo[2,3-b]pyridin-4-yl)nicotinamide], the half-maximal inhibitory concentration (IC50) at PRKACA-DNAJB1 is 1.01 to 5 nM; at PRKACA it was ≤ 1 nM; in experiment [1], 0.01 to 100 nM.
With `O=C(N[C@@H]1c2ccccc2OC[C@@H]1O)c1ccc(-c2ccnc3[nH]cc(F)c23)cc1` [Compound 123], the IC50 at PRKACA-DNAJB1 is ≤ 1 nM; on PRKACA, ≤ 1 nM; in experiment [1], < 50 nM.
Regarding `O=C(N[C@@H]1c2c(F)cccc2OC[C@@H]1O)c1ccc(-c2ccnc3[nH]ccc23)nc1` [Compound 126, N-[(3R,4R)-5-Fluoro-3-hydroxy-3,4-dihydro-2H-1-benzopyran-4-yl]-6-{1H-pyrrolo[2,3-b]pyridin-4-yl}pyridine-3-carboxamide], the IC50 at PRKACA-DNAJB1 was 1.01 to 5 nM; on PRKACA it was ≤ 1 nM; in experiment [1], < 50 nM.
Regarding `O=C(N[C@@H]1c2c(F)cccc2OC[C@@H]1O)c1ccc(-c2ccnc3[nH]ccc23)cn1` [Compound 127], the figures for the IC50 (on PRKACA-DNAJB1; on PRKACA; in experiment [1]) were 1.01 to 5 nM, ≤ 1 nM and < 50 nM, respectively.
With `O=C(N[C@H]1CCOc2cccc(F)c21)c1ccc(-c2ccnc3[nH]cc(F)c23)cc1` [Compound 128], the IC50 is ≤ 1 nM on PRKACA-DNAJB1, ≤ 1 nM on PRKACA and < 50 nM in experiment [1].
On to `O=C(N[C@H]1CCOc2ccc(F)c(F)c21)c1ccc(-c2ccnc3[nH]ccc23)cc1` [Compound 129, N-[(4S)-5,6-Difluoro-3,4-dihydro-2H-1-benzopyran-4-yl]-4-{1H-pyrrolo[2,3-b]pyridin-4-yl}benzamide], for which the figures for the half-inhibitory concentration (IC50) (on PRKACA-DNAJB1; on PRKACA; in experiment [1]) were ≤ 1 nM, ≤ 1 nM and < 50 nM, respectively.
For the compound `O=C(N[C@@H]1c2ccccc2C[C@H]1OCCO)c1ccc(-c2ccnc3[nH]ccc23)cc1` [Compound 134, N-[(1R,2R)-2-(2-Hydroxyethoxy)-2,3-dihydro-1H-inden-1-yl]-4-{1H-pyrrolo[2,3-b]pyridin-4-yl}benzamide], the IC50 is ≤ 1 nM on PRKACA-DNAJB1, ≤ 1 nM on PRKACA and < 50 nM in experiment [1].
Turning to `Cc1c[nH]c2nccc(-c3ccc(C(=O)N[C@@H]4c5c(F)cccc5OC[C@@H]4O)cn3)c12` [Compound 135], the results for the IC50 (at PRKACA-DNAJB1; on PRKACA; in experiment [1]) were ≤ 1 nM, ≤ 1 nM and 0.01 to 100 nM, respectively.
As for `O=C(N[C@@H]1c2c(Cl)cccc2OC[C@@H]1O)c1ccc(-c2ccnc3[nH]ccc23)nc1` [Compound 139], the IC50 at PRKACA-DNAJB1 was 1.01 to 5 nM; at PRKACA, ≤ 1 nM; in experiment [1], 0.01 to 100 nM.
In the case of `O=C(N[C@@H]1c2c(F)cccc2OC[C@@H]1O)c1ccc(-c2ccnc3[nH]cc(F)c23)nc1` [Compound 141], the IC50 at PRKACA-DNAJB1 is ≤ 1 nM; at PRKACA, ≤ 1 nM; in experiment [1] it was 0.01 to 100 nM.
Take `O=C(N[C@@H]1c2ccccc2C[C@H]1N1CCCC1)c1ccc(-c2ccnc3[nH]ccc23)cc1` [Compound 142]: the IC50 on PRKACA-DNAJB1 is ≤ 1 nM; on PRKACA, ≤ 1 nM; in experiment [1], < 50 nM.
Turning to `O=C(N[C@@H]1c2c(ccc(F)c2F)C[C@@H]1O)c1ccc(-c2ccnc3[nH]cc(F)c23)nc1` [Compound 146], the IC50 on PRKACA-DNAJB1 was ≤ 1 nM; on PRKACA, ≤ 1 nM; in experiment [1] it was 0.01 to 100 nM.
On to `Cc1c[nH]c2nccc(-c3ccc(C(=O)N[C@H]4C[C@@H](C)Oc5ccc(F)c(F)c54)cn3)c12` [Compound 148, N-[(2R,4S)-5,6-Difluoro-2-methyl-3,4-dihydro-2H-1-benzopyran-4-yl]-6-{3-methyl-1H-pyrrolo[2,3-b]pyridin-4-yl}pyridine-3-carboxamide], for which the half-inhibitory concentration (IC50) on PRKACA-DNAJB1 is ≤ 1 nM; at PRKACA, ≤ 1 nM; in experiment [1] it was 0.01 to 100 nM.
With `C[C@@H]1Oc2ccc(F)c(F)c2[C@@H](NC(=O)c2ccc(-c3ccnc4[nH]ccc34)nc2)[C@@H]1O` [Compound 150], the IC50 was ≤ 1 nM at PRKACA-DNAJB1, ≤ 1 nM at PRKACA and < 50 nM in experiment [1].

For the origin of these results see patent US12583856B2, “Inhibitors of protein kinase A” (Blueprint Medicines Corporation, priority 2021, dated 2026).
